Reference: patent US8258304B2, “N-aryl piperidine substituted biphenylcarboxamides” (Janssen Pharmaceutica N.V., priority 2002, dated 2012)

Columns and labels:
[1] = tested on: secretion of ApoB in HepG2 cells; assay: Quantification of the secretion of ApoB; assay type: cell-based; settings: Homo sapiens, 24 hours of incubation with test compound, apoB immunoprecipitated from medium, read-out: pIC50 values (=−log IC50 value) (converted)
Experimental: HepG2 cells were cultured in 24-well plates in MEM Rega 3 containing 10% fetal calf serum. At 70% confluency, the medium was changed and the test compound or carrier (DMSO, 0.4% final concentration) was added. After 24 hours of incubation, the medium was transferred to Eppendorf tubes and cleared by centrifugation. A sheep antibody directed against either apoB was added to the supernatant and the mixture was kept at 8° C. for 24 hours. Then, rabbit anti-sheep antibody was added and the immune complex was allowed to precipitate for 24 hours at 8° C. The immunoprecipitate was pelleted by centrifugation for 25 minutes at 1320 g and washed twice with a buffer containing 40 mM Mops, 40 mM NaH2PO4, 100 mM NaF, 0.2 mM DTT, 5 mM EDTA, 5 mM EGTA, 1% Triton-X-100, 0.5% sodium deoxycholate (DOC), 0.1% SDS, 0.2 μM leupeptin and 0.2 μM PMSF. Radioactivity in the pellet was quantified by liquid scintillation counting.
Resulting IC50 values are enumerated in Table C.1.

Structure (SMILES)	IC50 [1]	melting point
CCNC(=O)CC1CCN(c2ccc(NC(=O)c3ccccc3-c3ccc(C(C)(C)C)cc3)cc2)CC1 [Compound 7]	2.39 nM	–
CCNC(=O)C1CCN(c2ccc(NC(=O)c3ccccc3-c3ccc(C(C)(C)C)cc3)cc2)CC1 [Compound 6]	11.6 nM	–
CCNC(=O)C1CCN(c2ccc(NC(=O)c3ccccc3-c3ccc(C(F)(F)F)cc3)cc2)CC1 [Compound 4]	8.02 nM	–
CCOC(=O)CC1CCN(c2ccc(NC(=O)c3ccc(C)cc3-c3ccc(C(F)(F)F)cc3)cn2)CC1 [Compound 15]	25.6 nM	–
CCOC(=O)CC1CCN(c2ccc(NC(=O)c3cccc(C)c3-c3ccc(C(F)(F)F)cc3)cc2)CC1 [Compound 10]	11.3 nM	–
CCOC(=O)CC1CCN(c2ccc(NC(=O)c3ccc(C)cc3-c3ccc(C(F)(F)F)cc3)cc2)CC1 [Compound 12]	31.4 nM	–
CCOC(=O)CC1CCN(c2ccc(NC(=O)c3cccc(C)c3-c3ccc(C(F)(F)F)cc3)cn2)CC1 [Compound 14]	9.29 nM	134 to 137 °C
CC(C)(C)c1ccc(-c2ccccc2C(=O)Nc2ccc(N3CCC(C(=O)NCc4ccccc4)CC3)cc2)cc1 [Compound 8]	153 nM	–
COC(=O)C1CCN(c2ccc(NC(=O)c3ccccc3-c3ccc(C(F)(F)F)cc3)cc2)CC1 [Compound 9]	619 nM	–
CCNC(=O)CC1CCN(c2ccc(NC(=O)c3ccccc3-c3ccc(C(F)(F)F)cc3)cc2)CC1 [Compound 5]	38.4 nM	–
O=C(Nc1ccc(N2CCC(C(=O)NCc3ccccc3)CC2)cc1)c1ccccc1-c1ccc(C(F)(F)F)cc1 [Compound 1]	25.4 nM	–
O=C(CC1CCN(c2ccc(NC(=O)c3ccccc3-c3ccc(C(F)(F)F)cc3)cc2)CC1)NCc1ccccc1 [Compound 3]	3.56 nM	–
COC(=O)CC1CCN(c2ccc(NC(=O)c3ccccc3-c3ccc(C(F)(F)F)cc3)cc2)CC1 [Compound 11]	12.1 nM	–
CCOC(=O)CC1CCN(c2ccc(NC(=O)c3ccccc3-c3ccc(C(F)(F)F)cc3)cn2)CC1 [Compound 13]	89.5 nM	–
CC(C)(C)c1ccc(-c2ccccc2C(=O)Nc2ccc(N3CCC(CC(=O)NCc4ccccc4)CC3)cc2)cc1 [Compound 2]	6.04 nM	–
